In patent US20240270762A1, “PENICILLIN-BINDING PROTEIN INHIBITORS” (priority 2021, published 2024):
pEC50, pIC50: −log10 of the molar value. ≈ marks a conversion by molar mass, not a printed value.

Key:
[1] = tested on: A. baumannii ATCC 19606; assay: microbe, parasite or virus in culture; format: cell-based; details: Acinetobacter baumannii, ATCC19606, read-out: MIC, A. baumannii ATCC 19606
[2] = tested on: B. thailandensis ATCC 700388; assay: microbe, parasite or virus in culture; format: cell-based; details: Burkholderia thailandensis, ATCC700388, read-out: Minimum inhibitory concentration (MIC), B. thailandensis ATCC 700388
[3] = tested on: P. aeruginosa ATCC 27853; assay: microbe, parasite or virus in culture; format: cell-based; details: Pseudomonas aeruginosa, ATCC27853, read-out: Minimum inhibitory concentration, P. aeruginosa ATCC 27853
[4] = tested on: P. aeruginosa CDC-0095; assay: microbe, parasite or virus in culture; format: cell-based; details: Pseudomonas aeruginosa, CDC0095, read-out: Minimum inhibitory concentration, P. aeruginosa CDC-0095
[5] = tested on: P. aeruginosa CDC-0110; assay: microbe, parasite or virus in culture; format: cell-based; details: Pseudomonas aeruginosa, CDC0110, read-out: Minimum inhibitory concentration, P. aeruginosa CDC-0110
[6] = tested on: A. baumannii CDC-0045; assay: microbe, parasite or virus in culture; format: cell-based; details: Acinetobacter baumannii, CDC0045, read-out: MIC, A. baumannii CDC-0045
[7] = target: T1, PBP3 from Acinetobacter baumannii (ATCC 19606) (Acinetobacter baumannii, UniProt A0ABX6CK25); assay: Bocillin-FL fluorescence polarization competition binding, A. baumannii PBP3; details: fluorescence polarization competition binding assay using Bocillin-FL; read-out: A. baumannii PBP3 Potency
T1 sequence (A0ABX6CK25 64-610): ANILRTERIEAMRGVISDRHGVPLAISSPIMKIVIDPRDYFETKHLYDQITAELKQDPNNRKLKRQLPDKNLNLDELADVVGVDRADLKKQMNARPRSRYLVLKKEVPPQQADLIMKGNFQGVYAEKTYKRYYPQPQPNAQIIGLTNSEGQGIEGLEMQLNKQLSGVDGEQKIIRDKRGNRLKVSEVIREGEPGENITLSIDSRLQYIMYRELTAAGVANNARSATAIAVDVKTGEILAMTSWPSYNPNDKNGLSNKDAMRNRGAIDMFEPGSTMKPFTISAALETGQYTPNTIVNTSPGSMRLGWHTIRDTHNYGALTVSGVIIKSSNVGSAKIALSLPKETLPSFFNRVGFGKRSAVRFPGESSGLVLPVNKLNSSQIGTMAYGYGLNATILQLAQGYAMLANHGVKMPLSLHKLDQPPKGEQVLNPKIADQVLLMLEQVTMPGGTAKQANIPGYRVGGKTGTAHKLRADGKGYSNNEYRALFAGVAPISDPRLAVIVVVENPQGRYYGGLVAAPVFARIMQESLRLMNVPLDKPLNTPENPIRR
Summary of the method: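 Purified PBP was preincubated with inhibitor (E. coli PBP3 1.5 μM, 30 min; P. aeruginosa PBP3 0.75 μM, A. baumannii PBP3 0.2 μM and PBP1a 1 μM, 15 min), then Bocillin-FL (0.1 μM; 0.05 μM for PBP1a) added and FP read up to 60 min. EC50 = 50% loss of bound probe.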

[8] = target: A. baumannii PBP2 (Acinetobacter baumannii, UniProt D0C8Z9); assay: Bocillin-FL competition binding via gel filtration, A. baumannii PBP2
Summary of the method: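 Competitive equilibrium binding; reporter Bocillin-FL. PBP + inhibitor (titration) pre-incubated → Bocillin-FL, 15 min → gel filtration → fluorescence. EC50 from Hill fit of fraction bound vs [inhibitor].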

Chain of A. baumannii PBP2 (D0C8Z9 whole entry): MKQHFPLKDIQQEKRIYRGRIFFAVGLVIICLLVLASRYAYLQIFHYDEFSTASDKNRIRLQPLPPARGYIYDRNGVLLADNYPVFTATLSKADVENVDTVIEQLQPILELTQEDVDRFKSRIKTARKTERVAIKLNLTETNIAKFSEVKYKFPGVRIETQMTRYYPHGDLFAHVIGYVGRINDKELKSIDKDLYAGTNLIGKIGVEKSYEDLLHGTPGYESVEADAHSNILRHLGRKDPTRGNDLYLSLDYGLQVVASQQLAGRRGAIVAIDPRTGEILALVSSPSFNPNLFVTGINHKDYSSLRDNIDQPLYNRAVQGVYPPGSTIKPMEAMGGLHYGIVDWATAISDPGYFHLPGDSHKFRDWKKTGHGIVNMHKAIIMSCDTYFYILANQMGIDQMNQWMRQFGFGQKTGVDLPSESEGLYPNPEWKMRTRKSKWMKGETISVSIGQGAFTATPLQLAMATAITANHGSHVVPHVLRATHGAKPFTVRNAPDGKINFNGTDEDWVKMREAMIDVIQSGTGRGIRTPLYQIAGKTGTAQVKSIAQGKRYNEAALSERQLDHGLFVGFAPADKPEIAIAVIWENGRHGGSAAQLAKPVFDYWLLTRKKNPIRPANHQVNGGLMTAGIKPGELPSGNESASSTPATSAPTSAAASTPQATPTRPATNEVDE

## O=C(O)c1c(F)ccc2c1OB(O)[C@@H](NC(=O)[C@H](NC(=O)N1CCN(C3CCN(C(=O)c4cc(F)c(F)c(O)c4F)CC3)C1=O)c1cc(F)c(O)c(O)c1Cl)C2 (single isomer, unassigned) [Example 441]
[1]
  MIC: < 1 µg/mL
[2]
  MIC: < 1 µg/mL
[3]
  MIC: 2 to 4 µg/mL (≈ 2.46 to 4.93 µM)
[4]
  MIC: < 1 µg/mL
[5]
  MIC: < 1 µg/mL
[6]
  MIC: < 1 µg/mL
[7]
  pIC50: > 5.00
[8]
  pEC50: > 5.00

## O=C(O)c1c(F)ccc2c1OB(O)[C@@H](NC(=O)[C@H](NC(=O)N1CCN(C3CCN(C(=O)c4cc(O)cc(O)c4)CC3)C1=O)c1cc(F)c(O)c(O)c1Cl)C2 (single isomer, unassigned) [Example 442]
[1]
  MIC: < 1 µg/mL
[2]
  MIC: < 1 µg/mL
[3]
  MIC: < 1 µg/mL
[4]
  MIC: < 1 µg/mL
[5]
  MIC: < 1 µg/mL
[6]
  MIC: < 1 µg/mL
[7]
  pIC50: > 5.00
[8]
  pEC50: > 5.00

## O=C(O)c1c(F)ccc2c1OB(O)[C@@H](NC(=O)[C@H](NC(=O)N1CCN(C3CCN(C(=O)c4cc(O)c(F)c(O)c4)CC3)C1=O)c1cc(F)c(O)c(O)c1Cl)C2 (single isomer, unassigned) [Example 443]
[1]
  MIC: < 1 µg/mL
[2]
  MIC: < 1 µg/mL
[3]
  MIC: < 1 µg/mL
[4]
  MIC: < 1 µg/mL
[5]
  MIC: < 1 µg/mL
[6]
  MIC: < 1 µg/mL
[7]
  pIC50: > 5.00
[8]
  pEC50: > 5.00

## O=C(O)c1c(F)ccc2c1OB(O)[C@@H](NC(=O)[C@H](NC(=O)N1CCN(C3CCN(C(=O)c4cc(O)c(F)c(O)c4F)CC3)C1=O)c1cc(F)c(O)c(O)c1Cl)C2 (single isomer, unassigned) [Example 444]
[1]
  MIC: < 1 µg/mL
[2]
  MIC: < 1 µg/mL
[3]
  MIC: < 1 µg/mL
[4]
  MIC: < 1 µg/mL
[5]
  MIC: < 1 µg/mL
[6]
  MIC: < 1 µg/mL
[7]
  pIC50: > 5.00
[8]
  pEC50: > 5.00

## O=C(O)c1c(F)ccc2c1OB(O)[C@@H](NC(=O)[C@H](NC(=O)N1CCN(C3CCN(C(=O)Nc4cccc(O)c4F)CC3)C1=O)c1cc(F)c(O)c(O)c1Cl)C2 (single isomer, unassigned) [Example 446]
[1]
  MIC: < 1 µg/mL
[2]
  MIC: < 1 µg/mL
[3]
  MIC: < 1 µg/mL
[4]
  MIC: < 1 µg/mL
[5]
  MIC: < 1 µg/mL
[6]
  MIC: < 1 µg/mL
[7]
  pIC50: > 5.00
[8]
  pEC50: > 5.00

## O=C(O)c1c(F)ccc2c1OB(O)[C@@H](NC(=O)[C@H](NC(=O)N1CCN(C3CCN(C(=O)Nc4cc(O)ccc4Cl)CC3)C1=O)c1cc(F)c(O)c(O)c1Cl)C2 (single isomer, unassigned) [Example 448]
[1]
  MIC: < 1 µg/mL
[2]
  MIC: < 1 µg/mL
[3]
  MIC: < 1 µg/mL
[4]
  MIC: < 1 µg/mL
[5]
  MIC: < 1 µg/mL
[6]
  MIC: < 1 µg/mL
[7]
  pIC50: > 5.00
[8]
  pEC50: > 5.00

## O=C(O)c1c(F)ccc2c1OB(O)[C@@H](NC(=O)[C@H](NC(=O)N1CCN(C3CCN(C(=O)Nc4ccc(F)c(O)c4)CC3)C1=O)c1cc(F)c(O)c(O)c1Cl)C2 (single isomer, unassigned) [Example 449]
[1]
  MIC: < 1 µg/mL
[2]
  MIC: < 1 µg/mL
[3]
  MIC: < 1 µg/mL
[4]
  MIC: < 1 µg/mL
[5]
  MIC: < 1 µg/mL
[6]
  MIC: < 1 µg/mL
[7]
  pIC50: > 5.00
[8]
  pEC50: > 5.00

## O=C(O)c1c(F)ccc2c1OB(O)[C@@H](NC(=O)[C@H](NC(=O)N1CCN(C3CCN(C(=O)Nc4cc(O)cc(F)c4)CC3)C1=O)c1cc(F)c(O)c(O)c1Cl)C2 (single isomer, unassigned) [Example 450]
[1]
  MIC: < 1 µg/mL
[2]
  MIC: < 1 µg/mL
[3]
  MIC: < 1 µg/mL
[4]
  MIC: < 1 µg/mL
[5]
  MIC: < 1 µg/mL
[6]
  MIC: < 1 µg/mL
[7]
  pIC50: > 5.00
[8]
  pEC50: > 5.00

## O=C(O)c1c(F)ccc2c1OB(O)[C@@H](NC(=O)[C@H](NC(=O)N1CCN(C3CCN(C(=O)Nc4cc(O)ccc4F)CC3)C1=O)c1cc(F)c(O)c(O)c1Cl)C2 (single isomer, unassigned) [Example 451]
[1]
  MIC: < 1 µg/mL
[2]
  MIC: < 1 µg/mL
[3]
  MIC: < 1 µg/mL
[4]
  MIC: < 1 µg/mL
[5]
  MIC: < 1 µg/mL
[6]
  MIC: < 1 µg/mL
[7]
  pIC50: > 5.00
[8]
  pEC50: > 5.00
